Counter-ions that a name gives are not always drawn.
How the values were obtained:
[1] = system: heart rate response to isoproterenol (β-adrenergic); experiment: Heart rate response to isoproterenol in rats (initial drug screening); assay type: in vivo, male Spraque-Dawley rats; settings: 6 mg/kg i.p.
Source text: Initial Drug Screening Protocol. Thirty-two male Spraque-Dawley rats (Blue Spruce Farms) initially weighing 300-450 gm were divided into seven different groups, each for a different drug to be tested: 12(n=4), 14(n=4), 17(n=5), 13(n=4) and 18(n=3), corresponding to the designated compounds 12, 14, 17, 13 and 18 (number of animals), respectively. The other two groups were controls (n=8, isoproterenol alone pretreated with carrier) and those treated with a known β-blocker, dl-propranolol (n=3). Ech animal was anesthetized with sodium pentobarbital (45 mg/kg) and the carotid artery was cannulated with PE-50 tubing. The cannula was subcutaneously threaded around the neck and exteriorized dorsally between the shoulder blades. Th cannula was filled with a heparin solution (300 μg/mL) and sealed with a solid 22 gauge stylet. The animals were housed in individual stainless steel cages, and two days were allowed for recovery from the surgery. Food and water were provided ad libitum. On the day of the experiment, the blood pressure and heart rate of each rat were monitored with a pressure transducer (Narco-Bio model P-1000) and the data recorded on a four-channel physiograph (Narco-Bio systems Marck IV). One hour was allowed as an equilibration period before any drugs were administered. All beta blockers were administered intraperitoneally at a dose of 6 mg/kg. Compounds 12 and 14 and dl-proranolol were dissolved in normal saline while compounds 13, 17 and 18 were dissolved in an ethanol: water solution (3:1). Depending on the trial, controls were administered the appropriate carrier. One hour after administration of the blocker, isoproterenol (Isuprel®, Wintrop Laboratories) was administered subcutaneously at a dose of 25 μg/kg. Blood pressures and heart rate also were recorded 3, 5, 10, 15, 20, 30, 45 and 60 minutes after isoproterenol administration. Both control and experimental animals were unrestrained and free moving in their home cage throughout the experiment. […] However, significant differences in the mean heart rate response amoung the 7 groups were observed: *p<0.005;**p<0.025. Comparisons between groups were made by the Newman-Keuls procedure with significance set at the 95% confidence interval. […] All data are shown as mean±standard error of the mean.

[2] = system: heart rate response to isoproterenol (β-adrenergic); experiment: Cardiovascular experiments in dogs: blockade of isoproterenol heart rate response; assay type: in vivo, mongrel dogs
Method: Method. Healthy, mongrel dogs were anesthetized with a combination of morphine sulfate (2.0 mg/kg, subcutaneously) followed in 20 minutes with pentabarbital sodium (15 mg/kg, intravenously). Supplemental pentabarbital was given as necessary. A femoral vein was catheterized with polyethylene tubing to the level of the heart for injecting drug solutions. A polyethylene tube filled with heparinized saline was inserted through the femoral artery and advanced to the thoracic aorta for the measurement of arterial pressure. The left carotid artery was cannulated with a Millar® transducer-tip catheter for measurement of left ventricular pressure (LVP). The rising slope of the LVP signal was differentiated to give dP/dt, an estimate of myocardial contractility. Heart rate was determined via a Grass cardiotachometer triggered by the R wave of the lead II EKG. All variables were recorded on a Grass polygraph.
Dose-response curves were constructed for each experimental variable to graded i.v. doses of the β-adrenergic agonist, isoproterenol. A period of 3-5 minutes was allowed after each injection for variables to return to base-line. Following this, one of the four experimental β-adrenergic blocking agents was given i.v. over a one-minute period. Abbreviated dose-response curves (2-3 dose points) were again constructed to isoproterenol at 15, 30, 45, 60, 75 and 90 minutes after the administration of the test blockers. Using a 50-beat per minute (bpm) increase in heart rate as criteria, the degree of blockade was determined by dividing the dose of isoproterenol needed to produce a 50 bpm increase at various times following administration of an antagonists by the dose needed for this effect during the control period. The doses of the experimental β-adrenergic antagonists given were determined from previous experiments to produce an approximate two- or four-fold blockade of the heart rate response to isoproterenol.

[3] = Hydrolytic rate in 0.01 N aqueous sodium hydroxide, pH 12.0; assay type: physicochemical; settings: pH 12.0, ionic strength 0.10 M (NaCl), 27.3 ± 0.2° C.
Method: Analytical Methods. A high pressure liquid chromatography (HPLC) method was developed for the determination of the rate constants. The chromatographic analysis was performed in a system consisting of Waters Associates Model 600-A Solvent Delivery System, Model U-6K Injector and Model 440 Dual Channel Absorbance Detector operated at 254 and 280 nm. A 30 cm×3.9 mm (internal diameter) reverse phase μBondpack C18 column (Waters Associates), operated at ambient temperature, was used for all separations. When plasma samples were analyzed, the column was protected with a 2.3 cm×3.9 mm (internal diameter) Guard Column (Waters) packed with μBondpack C18/Corasil packing material. The mobile phase used for the separation of 17 and its degradation product, 5, consisted of water, 1-hexane sulfonic acid in acetic acid (B-6 reagent, Waters), 0.1M triethanolamine and methanol (100:1:100:799). […] For the separation of compounds 10-16 and 18 and their degradation product 5, a mobile phase consisting of water, 1-hexane sulfonic acid in acetic acid (B-6 reagent, Waters), 0.1M triethanolamine and methanol (390:1:10:599) was used.
Determination of the Hydrolytic Rate Constants in Aqueous Solutions. A 0.01M phosphate buffer and 0.01N sodium hydroxide solution were prepared from freshly distilled deionized water. This ionic strength was maintained at 0.1M with sodium chloride. The pH of the phosphate buffer was determined at 37.0° C. with a pH meter standardized at this temperature. For determination of the hydrolytic rate constants, a fresh concentrated solution of the ester in methanol was added to the hydrolytic medium previously equilibrated to the desired temperature and mixed thoroughly to result in an initial concentration of about 5×10^-4 mol. liter^-1. All reactions were run under pseudo first order conditions. Samples of 25 μL were injected into the column at various time intervals and the pseudo first order rate constants were determined from disappearance of the compound by linear regression of natural logarithm of the peak height versus time plots. The half-life and standard error of the rate constant were calculated for each run.

[4] = 1 mg/kg i.v., 15 minute measurements

CC(C)NCC(O)COc1ccc(CC(=O)OC2CC(C)(C)CC(C)(C)C2)cc1 (centres unmarked) [Compound 17, 3,3,5,5-Tetramethylcyclohexyl 4-(2-hydroxy-3-isopropylamino)propoxyphenylacetate oxalate 3/4 hydrate]
mean heart rate response to isoproterenol, comparison between groups ([1]; 1 hour before isoproterenol 25 μg/kg s.c., Newman-Keuls, first 20 minutes (17) or first 30 minutes (propranolol)): significantly different from both control- and compound 18-treated groups
control of heart rate 60 minutes after administration ([1]; FIG. 1): effectively control the heart rate
mean heart rate response to isoproterenol vs groups treated with compound 12 and 18 ([1]; 10 through 45 minutes following isoproterenol): significantly different than the groups treated with compound 12 and 18
resting heart rate prior to administration of isoproterenol ([1]; mean ± SEM): 372±19 beat/minute
Duration, Mean (time at which response to isoproterenol had returned to control levels) ([2]; 1 mg/kg i.v.): ~ 70 min
Duration, Range (time at which response to isoproterenol had returned to control levels) ([2]; 1 mg/kg i.v.): 45 to 90 min
Maximal blockade, Mean (time necessary to reach maximal blockade) [2, 4]: 40 min
Maximal blockade, Range (time necessary to reach maximal blockade) [2, 4]: 30 to 60 min
duration of action ([2]; i.v.): much more variable and generally longer
Observed pseudo first order hydrolytic rate constant k ([3]; 0.01 N NaOH, ± SEM): 1.56 ± 0.04 × 10^-2 min^-1
half-life ([3]; 0.01 n naoh, pH 12, 0.01 N NaOH, read-out: Half-life t1/2): 44.4 min
